{"source": "patent US11414379B2", "about": "“SPAK kinase inhibitors as neuroprotective agents” (United States Government as represented by the Department …, priority 2018, dated 2022)", "key": {"[1]": {"target": "T1, GST-[T233E]SPAK kinase (Homo sapiens, UniProt Q9UEW8, T231E)", "T1 construct": "made in house; host or cells: E. coli", "assay": "SPAK kinase assay employing CATCHtide", "format": "biochemical", "procedure": "SPAK kinase assays employing CATCHtide (cation chloride co-transporter peptide substrate). Peptide kinase assays, performed in triplicate, were set up in a total volume of 50 μl containing 0.5 μg GST-[T233E]SPAK kinase (˜5 nM at ˜10% purity) in 50 mM Tris/HCl, pH 7.5, 0.1 mM EGTA, 10 mM MgCl2, 300 μM CATCHtide ([…]; SEQ ID NO:1), […] [γ-32P]ATP (˜500 cpm/pmol) and the indicated concentrations of inhibitor dissolved in DMSO. After incubation for 30 min at 30° C., reactions were terminated by spotting 40 μl of the reaction mix onto P81 phosphocellulose paper and immersion in 50 mM phosphoric acid. The papers were washed extensively and the incorporation of [γ-^32P]ATP into CATCHtide was quantified by Cerenkov counting. IC^50 values were calculated with GraphPad Prism using non-linear regression analysis.\nReferring to FIG. 7A, the activation of SPAK kinase by MO25α is shown. SPAK was assayed in the absence or presence of five-fold molar excess of wild-type MO25α.\nReferring to FIG. 7B, kinetic data was determined for ZT-1a in the absence or presence of five-fold molar excess of wild-type MO25α. Data points are the average of three determinations, and the error bars are +/−SEM."}, "[2]": {"tested_on": "pSPAK", "assay": "IVH-induced phosphorylation in rat choroid plexus, ICV delivery", "format": "in vivo", "conditions": "48 hrs post-IVH, n=3"}, "[3]": {"tested_on": "pKCC3", "assay": "Phosphorylation in ischemic mouse brains, immunoblot", "format": "in vivo", "procedure": "(§1) The membranes were incubated for 30 min with TBST (Tris-buffered saline, 0.05% Tween-20) containing 5% (w/v) skim milk. The blots were then washed six times with TBST and incubated for 1 hour at room temperature with secondary HRP-conjugated antibodies diluted 5000-fold in 5% (w/v) skim milk in TBST. After repeating the washing steps, signals were detected with enhanced chemiluminescence reagent. Immunoblots were developed using a film automatic processor (SRX-101; Konica Minolta Medical) and films were scanned at 600 dpi (PowerLook 1000; UMAX). Figures were generated using Photoshop/Illustrator (Adobe). The densities of bands were measured with ImageJ. For phospho-antibody immunoprecipitation, KCC isoforms were immunoprecipitated from indicated cell extracts. 2 mg of the indicated clarified cell extract were mixed with 15 μg of the indicated phospho-specific KCC antibody conjugated to 15 μl of protein-G-Sepharose, in the added presence of […] of the dephosphorylated form of the phosphopeptide antigen, and incubated 2 hours at 4° C. with gentle shaking. Immunoprecipitates were washed three times with 1 mL of lysis buffer containing 0.15 M NaCl and twice with 1 ml of buffer A. Bound proteins were eluted with 1×LDS sample buffer.\n(§2) Brain homogenates were prepared as previously described (Bhuiyan et al. (2017) Journal of cerebral blood flow and metabolism: official journal of the International Society of Cerebral Blood Flow and Metabolism 37: 2780-2794). Mice were anesthetized with 5% isoflurane vaporized in N20 and 02 (3:2), then decapitated. […] The pellet was re-suspended in the homogenization buffer. Protein content in both membrane and cytosolic fractions was determined by the standard bicinchoninic acid method.\n(§3) Referring to FIG. 14A, representative immunoblots (IB) of phospho-SPAK/OSR1 (pSPAK/pOSR1), phospho-KCC3 and phospho-NKCC1 (pNKCC1) in mouse brains studied 24 hrs post-reperfusion after ischemic stroke are shown. Membrane protein fractions were prepared from contralateral (CL) and ipsilateral (IL) cerebral hemispheres. Vehicle (Veh, DMSO) or ZT-1a (5 mg/kg) was administered as described in FIG. 11A, FIG. 11B, and FIG. 13. Na^+-K^+ ATPase α-subunit and GAPDH served, respectively, as loading controls for membrane and cytosol fractions.\n(§4) Referring to FIG. 14B, densitometry analyses of immunoblots (similar to those in panel A) of pSPAK/pOSR1, pNKCC1, tSPAK/tOSR1, and tNKCC1 in mouse brains studied 24 hrs reperfusion after tMCAO are shown. Data are means±SEM, n=5 per group (male 3, female 2). *p<0.05."}, "[4]": {"tested_on": "pSPAK/pOSR1 and pNKCC1", "assay": "Phosphorylation in ischemic mouse brains, immunoblot", "format": "in vivo", "procedure": "as §1, §2, §3, §4"}, "[5]": {"tested_on": "mouse model of ischemic stroke", "assay": "Ex vivo MRI (T2WI, DTI) 7 days post-stroke", "format": "in vivo", "conditions": "p>0.05", "procedure": "For ex-vivo MRI, brains were maintained within the skull to avoid anatomical deformation. After overnight post-fixation in 4% PFA, heads were stored in PBS solution at 4° C. […] was performed at 500 MHz using a Bruker AV3HD 11.7 T/89 mm vertical bore small animal MRI scanner, equipped with a 25-mm quadrature RF coil and Paravision 6.0 (Bruker Biospin, Billerica, Mass.).\nIn a blinded manner, region of interests (ROIs) were manually drawn for the ipsilateral (IL) and contralateral (CL) cortex, striatum, corpus callosum (CC), and external capsule (EC). Values for the fractional anisotropy (FA), […] diffusion coefficient (ADC), and diffusivity were calculated for the entire volume of each ROI.\nReferring to FIG. 15A, representative T2WI images and quantitative analyses of lesion volume and atrophy (shrinkage) of ex vivo brains from vehicle (Veh) control and ZT-1a-treated mice at 7 days post-MCAO are shown. […]\nReferring to FIG. 15B, representative images of directionally encoded color (DEC) and fractional anisotropy (FA) maps are shown. […] Bar graphs display quantitation of mean values of FA, mean diffusivity (MD), axial diffusivity (AD) and radial diffusivity (RD) of white matter tissues (CC or EC) of ex vivo brain from vehicle control (Veh) and ZT-1a-treated mice at 7 days post-MCAO. […]"}, "[6]": {"conditions": "compared to vehicle-control mice"}, "[7]": {"conditions": "ipsilateral cortex membrane fractions, 24 hrs reperfusion, 5 mg/kg"}}, "data": [{"compound": "Cc1cc(C(C#N)c2ccc(Cl)cc2)c(Cl)cc1NC(=O)c1cc(Cl)ccc1O", "note": "(stereo not shown) [ZT-1a, 5-chloro-N-(5-chloro-4-((4-chlorophenyl)(cyano)methyl)-2-methylphenyl)-2-hydroxy-benzamide]", "values": [{"measurement": "change of IC50 values by addition of MO25α", "setting": "[1]", "result": "not significantly altered"}, {"measurement": "change of IC50 values with increasing ATP concentrations", "setting": "[1]; SPAK activity at different ATP concentrations", "result": "unchanged"}, {"measurement": "IC50", "setting": "[1]; absence of wild-type MO25α", "result": 40.5, "unit": "µM"}, {"measurement": "IC50", "setting": "[1]; presence of five-fold molar excess of wild-type MO25α", "result": 41.3, "unit": "µM"}, {"measurement": "reduction of IVH-induced expression of pSPAK", "setting": "[2]", "result": "55±3.6", "unit": "%"}, {"measurement": "reduction of ischemia-induced elevations of pKCC3", "setting": "[3]; [6]", "result": 30, "unit": "%"}, {"measurement": "effect on ischemia-induced increases of pKCC3", "setting": "[3]; [7]", "result": "prevented ischemia-induced increases"}, {"measurement": "reduction of ischemia-induced elevations of pSPAK and pNKCC1", "setting": "[4]; [6]", "result": "55-65%"}, {"measurement": "effect on ischemia-induced increases of pSPAK/pOSR1 and pNKCC1", "setting": "[4]; [7]", "result": "prevented ischemia-induced increases"}, {"measurement": "EC tract FA values in the IL hemisphere", "setting": "[5]", "result": "did not change"}]}]}
